This is an account of results in US20070184098A1, “Esters of flavonoids with w-substituted c6-c22 fatty acids” (priority 2003, published 2007).

“And” between values parts separate entries of the source, which are not always exact repeats. Equal entries are not always repeated. Where two headings read alike, the source gives them in different places.

The nature of data set [1]: Solubility in hydrophilic and lipophilic solvent by HPLC. Type of data set: physicochemical. Particulars: stirring 1 hour at room temperature; for solubility at 1 h: thermodynamic from solid. The procedure:
The solubility was determined by HPLC measurement after stirring during 1 hour at room temperature.

The next data set deals with Human fibroblasts. The data set is described as follows: UVA cytophotoprotection, anti-oxidative effect (MDA released, cell proteins, GSH) on UVA-irradiated human fibroblasts. Type of data set: cell-based. The settings on record: UVA 20 J/cm2; for Cell GSH/protein ratio: irradiated control = 78, not irradiated = 100; for MDA released: irradiated control = 100, not irradiated = 0; for Cell proteins: irradiated control = 107, not irradiated = 100. The procedure:
The cytoprotection against UVA irradiation has been evaluated by a test on human fibroblasts because UVA radiation penetrates through the epidermis until the dermis where it induces oxidative stress, mainly by activation of photosensitising biological components, which catalyse the formation of ROS like anion superoxide, hydrogen peroxide and singlet oxygen, and lipoperoxydation of the cell membrane. These oxidative stress effects are evaluated in vitro due to measuring of the level of released MDA (malondialdehyde) and of intracellular GSH (reduced glutathion) (Morliere P., Moisan A., Santus R., Huppe G., Mazière J. C., Dubertret L.: UV-A induced lipid peroxydation in cultured human fibroblasts Biochim. Biophys. Acta (1991) 1084, 3:261-269).
The lipoperoxides formed after UVA irradiation undergo a decay into malondialdehyde which can form cross-links between many biological molecules like proteins with inhibition of enzymes and nucleic bases with risk of mutagenesis. Glutathione (GSH) is a peptide produced by the cells to protect them from oxidative stress or certain pollutants like mercury or lead. An increase in the GSH level enhances the activity of glutathion-S-transferase, a detoxification enzyme. GSH is evaluated according to the method of Hissin (Hissin P. J., Hilf R. A fluorometric method for determination of oxydised and reduced Glutathione in tissues. Analytical Biochemistry (1977) vol 74, pp 214-226).
Human fibroblasts were inoculated with growth medium (DMEM+FCS) and incubated 3 days at 37° C., with 5% CO2. The growth medium was then exchanged with medium containing an ingredient to be tested and incubated 2 days at 37° C. with CO2=5%. After an exchange of medium with balanced salt solution, the cell culture was irradiated by UVA 20 J/cm^2. Cell proteins and GSH were measured, and MDA released in the supernatant was determined spectrophotometrically.

The test system of the next data set is Human keratinocytes. The data set can be described thus: UVB cytophotoprotection and anti-inflammatory effect (DNA, LDH and PGE2 released) on UVB-irradiated human keratinocytes. Type of data set: cell-based. The settings on record: UVB 50 mJ/cm2; for Keratinocytes DNA: irradiated control = 23, not irradiated = 100; for LDH released / PGE2 released: irradiated control = 100, not irradiated = 0. The text has this:
The arachidonic cascade is an important mechanism of cutaneous inflammation. This cascade may be induced by several factors, particularly by UVB irradiation. UVB induces the inflammatory response by activation of phospholipase A2 (PLA2), which results in a release of arachidonic acid from cell membranes. Then other specific enzymes (so called cyclo-oxygenases) transform arachidonic acid in active components called prostaglandin (PG) which are secreted from the cells. The fixation of certain prostaglandins (PGE2) on specific skin receptors is followed by redness and swelling on human skin. On cultured human cells, these UVB effects on cell's membrane are associated with a release of a cytoplasmic enzyme into the supernatant medium: Lactate Dehydrogenase or LDH.
Human keratinocytes were inoculated with growth medium (DMEM+FCS) and incubated 3 days at 37° C. and 5% CO2. The growth medium was then exchanged with balanced salt solution containing the ingredient to be tested, the cell culture was irradiated by UVB 50 mJ/cm^2 (DUKE GL40E lamp). After 1 day of incubation at 37° C. with 5% CO2, LDH and PGE2 released in the medium were determined, and cellular DNA was measured using a fluorescent probe to determine the cell viability.
In general terms: LDH in the medium is a marker of cell lysis.

The target in a further data set is Lipoxygenase. The data set is described as follows: Anti-free radical activity: superoxide anions released by lipoxygenase, Luminol probe. It is filed as biochemical. The settings on record: mean of 2 assays; lipoxygenase with unsaturated fatty acid substrate. The procedure:
The anti-free radical (anti-FR) activity has been evaluated by biochemical tests to address the potential for scavenging superoxide anion (O2°).
Lipoxygenase was incubated with a specific substrate (unsaturated fatty acid) and the flavonoid esters. Then the rate of released superoxide anions was determined using Luminol luminescent probe to calculate the IC50 (mean of 2 assays).

In the case of `C[C@@H]1O[C@@H](OC[C@H]2O[C@@H](Oc3c(-c4ccc(O)c(O)c4)oc4cc(O)cc(O)c4c3=O)[C@H](O)[C@@H](O)[C@@H]2O)[C@H](O)[C@H](O)[C@H]1O` [Rutin, reference compound], the solubility (commonly the dissolved amount per volume that the medium holds) at 1 h in data set [1] (butylene glycol, organic solvent or mixture, read-out: Solubility in butylene glycol) was 22600 µg/mL and 37100 µM. Besides, the solubility at 1 h in data set [1] (octyl-dodecanol, oil or lipid, read-out: Solubility in octyl-dodecanol) was 30 µg/mL and 50 µM. Further, the solubility at 1 h in data set [1] (water, read-out: Solubility in water) is 160 µg/mL and 270 µM. Also, in the data set on Human fibroblasts (dose 0.003 % w/v), the “Cell GSH/protein ratio” value stood at 72 % against control, the MDA released turned out to be 79 % against control and the Cell proteins is on record as 126 % against control. Also, in the data set on Human fibroblasts (dose 0.01 % w/v), the “Cell GSH/protein ratio” value came to 71 % against control, the MDA released worked out at 72 % against control and the Cell proteins was found to be 128 % against control. For the same molecule, in the data set with Human keratinocytes (dose 0.03 % w/v), the “Keratinocytes DNA” value is 69 % against control, the LDH released turned out to be 17 % against control and the PGE2 released is listed as 0 % against control. Further, in the data set on Human keratinocytes (dose 0.1 % w/v), the “Keratinocytes DNA” value came to 73 % against control, the LDH released stood at 18 % against control and the PGE2 released is reported as 10 % against control.
As for `CC1OC(OCC2OC(Oc3c(-c4ccc(O)c(O)c4)oc4cc(O)cc(O)c4c3=O)C(O)C(O)C2O)C(O)C(O)C1OC(=O)CCCCCCCCCCCCCCC(=O)OC1C(C)OC(OCC2OC(Oc3c(-c4ccc(O)c(O)c4)oc4cc(O)cc(O)c4c3=O)C(O)C(O)C2O)C(O)C1O` (centres unmarked) [Dirutin hexadecandioate, dirutin hexadecandioate], the “IC50 (w/v), released superoxide anions” value at Lipoxygenase is 0.0028 w/v. In the data set with Human fibroblasts (dose 0.001 % w/v), the “Cell GSH/protein ratio” value is reported as 98 % against control, the MDA released is 39 % against control and the Cell proteins is on record as 138 % against control. For the same molecule, in the data set with Human fibroblasts (dose 0.003 % w/v), the “Cell GSH/protein ratio” value amounted to 154 % against control, the MDA released was determined as 9 % against control and the Cell proteins amounted to 149 % against control. In the data set on Human keratinocytes (dose 0.001 % w/v), the “Keratinocytes DNA” value was 38 % against control, the LDH released worked out at 44 % against control and the PGE2 released is listed as 3 % against control. For the same molecule, in the data set with Human keratinocytes (dose 0.003 % w/v), the “Keratinocytes DNA” value was 35 % against control, the LDH released stood at 33 % against control and the PGE2 released is given as 1 % against control.
As for Rutin octadecandioate, on Lipoxygenase, the “IC50 (w/v), released superoxide anions” value turned out to be 0.0034 w/v. In the data set with Human fibroblasts (dose 0.001 % w/v), the “Cell GSH/protein ratio” value is 73 % against control, the MDA released stood at 46 % against control and the Cell proteins is reported as 139 % against control. Also, in the data set with Human fibroblasts (dose 0.003 % w/v), the “Cell GSH/protein ratio” value turned out to be 122 % against control, the MDA released stood at 15 % against control and the Cell proteins is 133 % against control. Besides, in the data set with Human keratinocytes (dose 0.001 % w/v), the “Keratinocytes DNA” value is recorded as 23 % against control, the LDH released amounted to 73 % against control and the PGE2 released stood at 28 % against control. For the same molecule, in the data set with Human keratinocytes (dose 0.003 % w/v), the “Keratinocytes DNA” value is 49 % against control, the LDH released is on record as 31 % against control and the PGE2 released stood at 3 % against control.
Consider `CC1OC(OCC2OC(Oc3c(-c4ccc(O)c(O)c4)oc4cc(O)cc(O)c4c3=O)C(O)C(O)C2O)C(O)C(O)C1OC(=O)CCCCCCCC(=O)O` (centres unmarked) [Rutin azelaiate], for which, at Lipoxygenase, the “IC50 (w/v), released superoxide anions” value is on record as 0.0025 w/v. Further, in the data set with Human fibroblasts (dose 0.001 % w/v), the “Cell GSH/protein ratio” value is reported as 67 % against control, the MDA released is on record as 78 % against control and the Cell proteins is reported as 144 % against control. Moreover, in the data set on Human fibroblasts (dose 0.003 % w/v), the “Cell GSH/protein ratio” value amounted to 64 % against control, the MDA released is on record as 64 % against control and the Cell proteins is 165 % against control. Also, in the data set on Human keratinocytes (dose 0.003 % w/v), the “Keratinocytes DNA” value amounted to 51 % against control, the LDH released stood at 45 % against control and the PGE2 released is 28 % against control. In the data set on Human keratinocytes (dose 0.01 % w/v), the “Keratinocytes DNA” value turned out to be 53 % against control, the LDH released is 27 % against control and the PGE2 released worked out at 19 % against control.
As for `CC1OC(OCC2OC(Oc3c(-c4ccc(O)c(O)c4)oc4cc(O)cc(O)c4c3=O)C(O)C(O)C2O)C(O)C(O)C1OC(=O)CCCCCCCCCCS` (centres unmarked) [Rutin 11-mercaptoundecanoate], in data set [1], the “Solubility in butylene glycol” value was 54.5 g/L and 67.2 mM; the Solubility in octyl-dodecanol was 0.15 g/L and 0.19 mM. Moreover, in the data set on Human fibroblasts (dose 0.001 % w/v), the “Cell GSH/protein ratio” value turned out to be 131 % against control, the MDA released was found to be 34 % against control and the Cell proteins is on record as 94 % against control. For the same molecule, in the data set with Human fibroblasts (dose 0.003 % w/v), the “Cell GSH/protein ratio” value stood at 283 % against control, the MDA released is listed as 0 % against control and the Cell proteins was 89 % against control. In the data set with Human keratinocytes (dose 0.0001 % w/v), the “Keratinocytes DNA” value was determined as 44 % against control, the LDH released worked out at 75 % against control and the PGE2 released was determined as 26 % against control. In the data set on Human keratinocytes (dose 0.0003 % w/v), the “Keratinocytes DNA” value was determined as 41 % against control, the LDH released is 92 % against control and the PGE2 released is reported as 12 % against control.
